Source: article PMC11547703, “Design, Synthesis, and Evaluation of Doxifluridine Derivatives as Nitroreductase-Responsive Anticancer Prodrugs” (Molecules, 2024)

Experiments:
[1] = Stability of target compounds in rat plasma, HPLC; format: in vitro ADME, SD rat; details: 50 μM, 37 °C
Protocol: The stability of the target compounds was tested first, and excellent stability was essential for physiological function evaluation. Phosphate-buffered saline (PBS) of different pH values was used to evaluate the stability of the target compounds in a weakly acidic tumor microenvironment (pH 6.5) versus a weakly alkaline normal physiological environment (pH 7.4). […] The stability of the target compounds in mouse and rat plasma was excellent. The concentrations of all target compounds remained at >80% of the initial concentrations after 24 h, with the concentrations of compounds 1c, 2c, and 3c being 89%, 88%, and 83% in mouse plasma and 86%, 84%, and 81% in rat plasma, respectively (Figure 3c,d).
PBS (pH 7.4) was made with 137 mM NaCl, 2.7 mM KCl, 10 mM Na2HPO4, and 1.8 mM KH2PO4, while PBS (pH 6.5) was made with 24.6 mM Na2HPO4 and 175.4 mM NaH2PO4. The target compounds were dissolved into the different buffers (50 μM; 1% DMSO), and the mixtures were incubated at 37 °C. A 100-μL sample was transferred to a vial for HPLC analysis at 1, 2, 4, 8, 12, and 24 h. C57BL/6 mice and SD rat orbital whole blood was collected into anticoagulation tubes and centrifuged at 4000× g for 5 min at 4 °C to obtain plasma. The target compounds were dissolved into the plasma (50 μM; 1% DMSO) and incubated at 37 °C. Each sample (100 μL) was collected and precipitated using 100 μL of acetonitrile. The mixture was vortexed for 5 min and centrifuged at 10,000× g for 10 min. The supernatant was transferred to a vial for HPLC analysis after 1, 2, 4, 8, 12, and 24 h.

NTR = molecular target: T1, NTR (Escherichia coli, UniProt P38489); experiment: In vitro release evaluation: incubation with NTR and NADH, HPLC of derivative and released 5′-DFUR; format: biochemical; details: Escherichia coli; 50 µM compound, NTR 50 µg/mL, NADH 2 mM, PBS pH 7.4, 37 °C; read-out: half-life in the presence of NTR (converted)
T1 construct: host or cells: Escherichia coli
T1 sequence (P38489 whole entry): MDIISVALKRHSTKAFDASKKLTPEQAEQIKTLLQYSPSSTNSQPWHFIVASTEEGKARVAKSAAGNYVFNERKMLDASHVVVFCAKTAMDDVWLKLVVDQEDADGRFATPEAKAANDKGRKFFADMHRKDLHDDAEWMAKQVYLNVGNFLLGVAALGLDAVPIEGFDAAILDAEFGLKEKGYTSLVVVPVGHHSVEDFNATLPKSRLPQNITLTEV
Protocol: (§1) NTR levels are reportedly much higher in hypoxic tumors than in normal tissues. To investigate the mechanism of activation of the derivatives and the amount of 5′-DFUR released, we treated the target compounds with NTR extracted from Escherichia coli to determine whether they provided the desired active agent as expected. The test compounds (50 µM, 1% dimethyl sulfoxide [DMSO]) were dissolved in PBS buffer at pH 7.4 and incubated with NTR (50 µg/mL) and NADH (2 mM) at 37 °C, and the concentrations of the derivatives and 5′-DFUR during the bioreduction were detected by high-performance liquid chromatography (HPLC). The designed target compounds 1c–3c could be metabolized to form 5′-DFUR in the presence of NTR, while the nitro-free compounds 4c–6c could not be metabolized to form 5′-DFUR. […] The metabolic rate of compound 2c was the highest, with a half-life of 0.6 h. It was completely degraded after 4 h, and 69.6% of 5′-DFUR was released. […] During the experiment, other metabolites, such as hydroxylamine derivatives and amino derivatives generated by reducing the nitro group were also detected. […] Compounds 4c, 5c and 6c, without nitro groups, remained well-stabilized under NTR conditions, with concentrations > 90% after 12 h.
(§2) The target compounds NTR and NADH were dissolved in 10 mM PBS (pH 7.4; 1% DMSO). The final concentrations of the target compounds NTR and NADH in the mixtures were 50 μM, 50 μg/mL, and 2 mM, respectively. The mixture were incubated at 37 °C. The sample (100 μL) was collected and quenched by 100 µL of cold methanol. The mixture was vortexed for 5 min and centrifuged at 10,000× g for 10 min. The supernatant was transferred to a vial for HPLC analysis at 0.25, 0.5, 1, 2, 4, 8, and 12 h.

[2] = molecular target: T2, NTR extracted from Escherichia coli (Escherichia coli, UniProt P38489); experiment: as above; format: biochemical
T2 construct: host or cells: Escherichia coli
T2 sequence (P38489 whole entry): as above
Protocol: as §1, §2

SMILES: C[C@H]1O[C@@H](n2cc(F)c(=O)n(Cc3ccc([N+](=O)[O-])o3)c2=O)[C@H](O)[C@@H]1O [Compound 2c]
- concentration relative to initial concentration after 24 h in rat plasma [1]: 84%
- half-life at 50 µM (NTR): 36 min
- time after which compound was completely degraded by NTR ([2]; 50 µM compound, NTR 50 µg/mL, NADH 2 mM, PBS pH 7.4, 37 °C): 4 h
- 5′-DFUR released ([2]; 50 µM compound, NTR 50 µg/mL, NADH 2 mM, PBS pH 7.4, 37 °C, at complete degradation): 69.6%
- amount of 5′-DFUR released (AUC0–12h of relative amount), comparison in words ([2]; versus 1c and 3c, Figure 4d): significantly higher
